A value given as a limit tells only on which side of the number the result lay.

IC50 data for 24 compounds are collected here from patent publication US20230000870A1, “METHODS OF TREATING CANCER IN BIOMARKER-IDENTIFIED PATIENTS WITH INHIBITORS OF CYCLIN-DEPENDENT KINASE 7 (CDK7)” (Syros Pharmaceuticals, Inc., priority 2019, published 2023).

One test has as its target CDK2/Cyclin E1 complex (Homo sapiens, UniProt P24941). In words: CDK2 kinase inhibition assay (Caliper/LabChip EZ Reader). It is filed as biochemical. Particulars: CDK2/Cyclin E1 0.5 nM, ATP 2 mM, 35 min at 27° C. In short, it runs like this: (§1)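 Incubation times were set for ~20% (±5%) peptide phosphorylation by uninhibited enzyme: CDK7 35 min, CDK2 35 min (0.5 nM complex, 2 μM 5-FAM-CDK7tide, 2 mM MgCl2), CDK12 3 hr (50 nM, 2 μM 5-FAM-CDK9tide, 2 mM MgCl2), CDK9 15 min (8 nM, 2 μM 5-FAM-CDK9tide, 10 mM MgCl2). Read-out on LabChip EZ Reader, 27° C.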

In test [1] the target is CDK7/Cyclin H/MAT1 complex (Homo sapiens, UniProt P50613). The experiment in a line: CDK7 kinase inhibition assay (Caliper/LabChip EZ Reader). Format: biochemical. The settings on record: CDK7/Cyclin H/MAT1 6 nM, ATP 2 mM, 35 min at 27° C. The method, boiled down:
as §1

The target of a further test is CDK9/Cyclin T1 complex (Homo sapiens, UniProt P50750). The experiment in a line: CDK9 kinase inhibition assay (Caliper/LabChip EZ Reader). It is filed as biochemical. Particulars: CDK9/Cyclin T1 8 nM, ATP 2 mM, 15 min at 27° C. In short, it runs like this: as §1
Test [2] addresses T1, CDK12 (aa686-1082)/Cyclin K complex (Homo sapiens, UniProt Q9NYV4).
T1 construct: CDK12 (aa686-1082)/Cyclin K complex
The experiment in a line: CDK12 kinase inhibition assay (Caliper/LabChip EZ Reader). Format: biochemical. Particulars: CDK12 (aa686-1082)/Cyclin K 50 nM, ATP 2 mM, 3 hr at 27° C. The method, boiled down:
as §1

The next test deals with A673 cells. The experiment in a line: Inhibition of proliferation of A673 cells (CyQUANT, 72 hour). It is filed as cell-based, human. The settings on record: read-out: Inhibition of Proliferation of A673 Cells (calculated IC50). In short, it runs like this:
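Read-out is CyQUANT after a 72 h proliferation period, following the kit protocol. Dilution series in 0.5-log steps over the stated 4 μM to […] range. Cells are A673 (human Ewing's sarcoma), grown in DMEM with 10% FBS and 1 mM sodium pyruvate at 37 °C under 5% CO2.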

The test system of another test is HCC70 cells. In words: Inhibition of proliferation of HCC70 cells (CyQUANT Direct, 72 hour). It is filed as cell-based, human. The settings on record: read-out: Inhibition of Proliferation of HCC70 Cells (calculated IC50). In short, it runs like this:
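Anti-proliferative effect measured with the CyQUANT Direct kit after a 72 h exposure at 37 °C, 5% CO2. Compounds were tested at 0.5 log serial dilutions spanning 4–[…] on HCC70 triple-negative breast cancer cells cultured in RPMI-1640 with 10% FBS.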

Sequence of CDK9/Cyclin T1 complex (P50750 whole entry, the tested form may be a part): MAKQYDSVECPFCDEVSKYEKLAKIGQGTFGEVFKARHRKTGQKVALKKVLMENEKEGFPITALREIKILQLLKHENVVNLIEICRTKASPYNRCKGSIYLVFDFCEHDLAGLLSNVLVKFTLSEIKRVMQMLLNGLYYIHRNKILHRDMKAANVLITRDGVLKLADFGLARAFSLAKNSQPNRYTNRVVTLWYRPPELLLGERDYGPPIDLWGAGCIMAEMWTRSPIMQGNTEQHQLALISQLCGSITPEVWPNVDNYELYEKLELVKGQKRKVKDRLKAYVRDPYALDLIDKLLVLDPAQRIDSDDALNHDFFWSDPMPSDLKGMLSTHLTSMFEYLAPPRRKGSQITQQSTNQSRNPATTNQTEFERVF
Sequence of CDK9/Cyclin T1 complex (O60563 whole entry partner, the tested form may be a part): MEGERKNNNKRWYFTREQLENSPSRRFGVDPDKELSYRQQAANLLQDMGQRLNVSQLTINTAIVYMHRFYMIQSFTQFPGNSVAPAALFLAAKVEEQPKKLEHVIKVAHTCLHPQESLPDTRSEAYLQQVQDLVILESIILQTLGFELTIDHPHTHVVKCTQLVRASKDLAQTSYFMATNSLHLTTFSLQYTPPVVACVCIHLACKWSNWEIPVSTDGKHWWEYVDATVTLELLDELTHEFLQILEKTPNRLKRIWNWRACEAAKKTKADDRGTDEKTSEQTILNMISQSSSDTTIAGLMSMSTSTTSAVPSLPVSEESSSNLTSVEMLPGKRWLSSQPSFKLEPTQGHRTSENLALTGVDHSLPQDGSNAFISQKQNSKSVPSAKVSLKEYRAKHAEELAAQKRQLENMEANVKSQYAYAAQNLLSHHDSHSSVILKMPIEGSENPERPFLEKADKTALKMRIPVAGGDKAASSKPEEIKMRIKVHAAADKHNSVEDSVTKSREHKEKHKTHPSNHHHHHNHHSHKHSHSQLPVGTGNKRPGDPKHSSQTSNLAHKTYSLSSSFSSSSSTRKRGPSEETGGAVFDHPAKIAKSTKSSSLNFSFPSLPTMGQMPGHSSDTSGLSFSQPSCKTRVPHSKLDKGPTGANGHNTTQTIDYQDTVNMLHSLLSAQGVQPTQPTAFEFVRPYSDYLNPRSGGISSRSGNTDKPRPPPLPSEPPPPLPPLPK
Sequence of CDK7/Cyclin H/MAT1 complex (P50613 whole entry): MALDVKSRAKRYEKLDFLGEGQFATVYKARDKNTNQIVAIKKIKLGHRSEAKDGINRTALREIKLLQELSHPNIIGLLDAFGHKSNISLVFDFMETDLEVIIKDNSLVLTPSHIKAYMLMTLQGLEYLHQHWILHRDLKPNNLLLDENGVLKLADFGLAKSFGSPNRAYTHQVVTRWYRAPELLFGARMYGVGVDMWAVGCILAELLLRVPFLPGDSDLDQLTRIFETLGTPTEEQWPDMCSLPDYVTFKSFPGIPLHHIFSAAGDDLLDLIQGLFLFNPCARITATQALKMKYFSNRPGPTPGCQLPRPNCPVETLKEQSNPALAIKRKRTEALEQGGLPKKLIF
Sequence of CDK7/Cyclin H/MAT1 complex (P51946 whole entry partner): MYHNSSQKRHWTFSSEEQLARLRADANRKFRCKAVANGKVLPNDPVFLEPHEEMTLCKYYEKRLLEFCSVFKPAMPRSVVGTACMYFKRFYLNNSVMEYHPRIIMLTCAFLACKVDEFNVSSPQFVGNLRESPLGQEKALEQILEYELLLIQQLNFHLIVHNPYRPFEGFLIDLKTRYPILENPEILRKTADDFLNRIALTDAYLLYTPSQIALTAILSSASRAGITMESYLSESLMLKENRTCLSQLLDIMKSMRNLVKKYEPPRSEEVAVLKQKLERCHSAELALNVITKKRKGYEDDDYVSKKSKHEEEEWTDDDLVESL
Sequence of CDK7/Cyclin H/MAT1 complex (P51948 whole entry partner): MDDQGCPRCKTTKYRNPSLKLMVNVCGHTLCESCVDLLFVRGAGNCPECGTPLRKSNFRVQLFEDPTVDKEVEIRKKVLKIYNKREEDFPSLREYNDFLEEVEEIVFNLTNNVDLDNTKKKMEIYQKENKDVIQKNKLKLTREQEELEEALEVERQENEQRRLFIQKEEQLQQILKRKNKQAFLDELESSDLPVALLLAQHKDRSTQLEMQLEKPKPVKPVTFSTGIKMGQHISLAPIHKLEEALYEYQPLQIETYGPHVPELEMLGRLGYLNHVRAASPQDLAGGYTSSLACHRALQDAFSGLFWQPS
T1 sequence (Q9NYV4 686-1082): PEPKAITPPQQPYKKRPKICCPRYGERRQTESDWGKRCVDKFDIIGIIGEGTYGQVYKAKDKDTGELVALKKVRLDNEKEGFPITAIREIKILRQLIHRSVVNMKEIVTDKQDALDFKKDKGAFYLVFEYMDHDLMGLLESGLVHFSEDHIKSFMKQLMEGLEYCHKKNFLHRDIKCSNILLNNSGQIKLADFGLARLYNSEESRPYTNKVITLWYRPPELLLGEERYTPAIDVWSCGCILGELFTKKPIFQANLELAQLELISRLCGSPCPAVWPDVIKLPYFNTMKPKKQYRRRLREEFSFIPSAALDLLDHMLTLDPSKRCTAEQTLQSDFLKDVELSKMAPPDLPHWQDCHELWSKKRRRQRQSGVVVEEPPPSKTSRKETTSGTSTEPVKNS
T1 sequence (O75909 whole entry partner, the tested form may be a part): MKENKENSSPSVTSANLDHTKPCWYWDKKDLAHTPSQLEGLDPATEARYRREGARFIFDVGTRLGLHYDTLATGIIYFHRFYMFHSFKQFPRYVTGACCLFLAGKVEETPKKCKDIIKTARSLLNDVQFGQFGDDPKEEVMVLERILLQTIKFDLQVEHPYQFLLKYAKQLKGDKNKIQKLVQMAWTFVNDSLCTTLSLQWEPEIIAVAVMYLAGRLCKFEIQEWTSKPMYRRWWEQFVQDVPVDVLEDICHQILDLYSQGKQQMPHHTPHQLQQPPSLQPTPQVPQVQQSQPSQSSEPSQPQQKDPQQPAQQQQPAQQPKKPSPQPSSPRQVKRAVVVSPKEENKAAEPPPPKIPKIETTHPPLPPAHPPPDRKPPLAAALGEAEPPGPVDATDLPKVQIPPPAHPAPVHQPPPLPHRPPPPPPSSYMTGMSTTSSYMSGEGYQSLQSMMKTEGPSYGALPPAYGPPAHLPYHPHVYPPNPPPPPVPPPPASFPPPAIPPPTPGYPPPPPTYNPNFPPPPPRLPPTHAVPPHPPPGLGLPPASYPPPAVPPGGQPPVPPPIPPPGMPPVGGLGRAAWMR

Turning to `CCc1cnc(NC2CCCNC2)nc1-c1n[nH]c2nc(C#N)ccc12` (stereo not shown) [Compound 277], the IC50 against CDK2/Cyclin E1 complex was 200 to 5000 nM; in test [1] it was less than 20 nM; against CDK9/Cyclin T1 complex it was 200 to 5000 nM; in test [2], 200 to 5000 nM; with A673 cells it was 20 to 200 nM; with HCC70 cells, 100 to 1000 nM.
Turning to `FC(F)(F)c1cnc(NC2CCCNC2)nc1-c1c[nH]c2cnc(Cl)cc12` (stereo not shown) [Compound 165], the IC50 at CDK2/Cyclin E1 complex was 200 to 5000 nM; in test [1], less than 20 nM; against CDK9/Cyclin T1 complex it was 200 to 5000 nM; in test [2] it was 200 to 5000 nM; in the test on A673 cells, 20 to 200 nM; in the test on HCC70 cells, 100 to 1000 nM.
`Cc1[nH]ncc1-c1cccc2c(-c3nc(N[C@@H]4CCCNC4)ncc3C(F)(F)F)c[nH]c12` [Compound 175]: the IC50 at CDK2/Cyclin E1 complex was 200 to 5000 nM; in test [1], less than 20 nM; on CDK9/Cyclin T1 complex, 20 to 200 nM; in test [2] it was 200 to 5000 nM; in the test with A673 cells, less than 20 nM; in the test on HCC70 cells, 1000 to 5000 nM.
For the compound `N#Cc1ccc2c(-c3nc(N[C@@H]4CCCNC4)ncc3C(F)(F)F)c[nH]c2c1-c1ccnnc1` [Compound 261], the IC50 on CDK2/Cyclin E1 complex was 200 to 5000 nM; in test [1], 20 to 200 nM; at CDK9/Cyclin T1 complex it was 200 to 5000 nM; in test [2] it was 200 to 5000 nM; in the test on A673 cells, less than 20 nM; in the test on HCC70 cells, less than 100 nM.
Regarding `FC(F)(F)c1cnc(NC2CCCNC2)nc1-c1c[nH]c2c(-c3cn[nH]c3)cccc12` (stereo not shown) [Compound 170], the IC50 at CDK2/Cyclin E1 complex is 200 to 5000 nM; in test [1], less than 20 nM; against CDK9/Cyclin T1 complex it was 200 to 5000 nM; in test [2], 20 to 200 nM; with A673 cells, less than 20 nM; in the test on HCC70 cells it was less than 100 nM.
`N#CC1CCN(C(=O)c2ccc3c(-c4nc(NC5CCCNC5)ncc4C(F)(F)F)c[nH]c3c2)C1` (stereo not shown) [Compound 292]: the IC50 is 200 to 5000 nM against CDK2/Cyclin E1 complex; less than 20 nM in test [1]; 200 to 5000 nM on CDK9/Cyclin T1 complex; 200 to 5000 nM in test [2]; 20 to 200 nM in the test with A673 cells; 100 to 1000 nM in the test on HCC70 cells.
`FC(F)n1cc(-c2ccc3c(-c4nc(NC5CCCNC5)ncc4C(F)(F)F)c[nH]c3c2)cn1` (stereo not shown) [Compound 290]: the IC50 against CDK2/Cyclin E1 complex was 200 to 5000 nM; in test [1], 20 to 200 nM; against CDK9/Cyclin T1 complex it was 200 to 5000 nM; in test [2], 200 to 5000 nM; in the test with A673 cells it was 20 to 200 nM; with HCC70 cells, 100 to 1000 nM.
As for `Oc1ncccc1-c1ccc2c(-c3nc(NC4CCCNC4)ncc3C(F)(F)F)c[nH]c2c1` (stereo not shown) [Compound 310], the IC50 against CDK2/Cyclin E1 complex is 200 to 5000 nM; in test [1], less than 20 nM; at CDK9/Cyclin T1 complex, no less than 5000 nM; in test [2], 200 to 5000 nM; in the test on HCC70 cells it was 100 to 1000 nM.
`CC1(O)CCN(C(=O)c2ccc3c(-c4nc(N[C@H]5CCCNC5)ncc4C(F)(F)F)c[nH]c3c2)CC1` [Compound 282]: the IC50 was 200 to 5000 nM against CDK2/Cyclin E1 complex; less than 20 nM in test [1]; no less than 5000 nM against CDK9/Cyclin T1 complex; 200 to 5000 nM in test [2]; 100 to 1000 nM with HCC70 cells.
As for `CC1(O)CCN(S(=O)(=O)c2ccc3c(-c4nc(NC5CCCNC5)ncc4C(F)(F)F)c[nH]c3c2)C1` (stereo not shown) [Compound 366], the IC50 on CDK2/Cyclin E1 complex was 200 to 5000 nM; in test [1], 20 to 200 nM; against CDK9/Cyclin T1 complex, 200 to 5000 nM; in test [2], 200 to 5000 nM; in the test with HCC70 cells it was 1000 to 5000 nM.
Regarding `CN1CCC[C@H](Nc2ncc(C(F)(F)F)c(-c3c[nH]c4cc(S(C)(=O)=O)ccc34)n2)C1` [Compound 364], the IC50 on CDK2/Cyclin E1 complex was no less than 5000 nM; in test [1], 20 to 200 nM; on CDK9/Cyclin T1 complex, no less than 5000 nM; in test [2] it was no less than 5000 nM; in the test on HCC70 cells it was 1000 to 5000 nM.
As for `Cn1ccc(-c2ccc3c(-c4nc(NC5CCCNC5)ncc4C(F)(F)F)c[nH]c3c2)n1` (stereo not shown) [Compound 303], the IC50 is 200 to 5000 nM at CDK2/Cyclin E1 complex; less than 20 nM in test [1]; 200 to 5000 nM against CDK9/Cyclin T1 complex; 200 to 5000 nM in test [2]; 100 to 1000 nM in the test on HCC70 cells.
For `CCN1CC(Nc2ncc(C(F)(F)F)c(-c3c[nH]c4cc(S(C)(=O)=O)ccc34)n2)CC(C)(C)C1` (stereo not shown) [Compound 369], the IC50 at CDK2/Cyclin E1 complex was no less than 5000 nM; in test [1] it was 20 to 200 nM; against CDK9/Cyclin T1 complex it was no less than 5000 nM; in test [2], no less than 5000 nM; in the test on HCC70 cells it was 100 to 1000 nM.
For `OCc1cccc(-c2ccc3c(-c4nc(NC5CCCNC5)ncc4C(F)(F)F)c[nH]c3c2)n1` (stereo not shown) [Compound 316], the IC50 was 200 to 5000 nM at CDK2/Cyclin E1 complex; less than 20 nM in test [1]; no less than 5000 nM at CDK9/Cyclin T1 complex; 200 to 5000 nM in test [2]; 100 to 1000 nM with HCC70 cells.
In the case of `FC(F)(F)c1cnc(NC2CCCNC2)nc1-c1c[nH]c2cc(-c3ccnc4ccccc34)ccc12` (stereo not shown) [Compound 339], the IC50 against CDK2/Cyclin E1 complex was no less than 5000 nM; in test [1] it was 20 to 200 nM; against CDK9/Cyclin T1 complex, no less than 5000 nM; in test [2], 200 to 5000 nM; in the test with HCC70 cells, 1000 to 5000 nM.
On to `FC(F)(F)c1cnc(N[C@H]2CCCNC2)nc1-c1c[nH]c2cc(-c3nccs3)ccc12` [Compound 332], for which the IC50 at CDK2/Cyclin E1 complex is 200 to 5000 nM; in test [1], less than 20 nM; against CDK9/Cyclin T1 complex it was 200 to 5000 nM; in test [2], 200 to 5000 nM; with HCC70 cells, less than 100 nM.
Turning to `CCc1cnc(N[C@H]2CCCNC2)nc1-c1c[nH]c2c(F)c(C#N)ccc12` [Compound 360], the IC50 was no less than 5000 nM on CDK2/Cyclin E1 complex; 20 to 200 nM in test [1]; no less than 5000 nM against CDK9/Cyclin T1 complex; no less than 5000 nM in test [2]; 1000 to 5000 nM in the test on HCC70 cells.
On to `Fc1cccc(-c2ccc3c(-c4nc(NC5CCCNC5)ncc4C(F)(F)F)c[nH]c3c2)c1` (stereo not shown) [Compound 345], for which the IC50 is no less than 5000 nM against CDK2/Cyclin E1 complex; 200 to 5000 nM in test [1]; no less than 5000 nM against CDK9/Cyclin T1 complex; no less than 5000 nM in test [2]; 1000 to 5000 nM in the test with HCC70 cells.
With `FC(F)Sc1ccc2c(-c3nc(NC4CCCNC4)ncc3C(F)(F)F)c[nH]c2c1` (stereo not shown) [Compound 374], the IC50 was 200 to 5000 nM against CDK2/Cyclin E1 complex; less than 20 nM in test [1]; 200 to 5000 nM on CDK9/Cyclin T1 complex; 20 to 200 nM in test [2]; less than 100 nM in the test with HCC70 cells.
In the case of `CP(C)(=O)c1cccc2c(-c3nc(NC4CCCNC4)ncc3C(F)(F)F)c[nH]c12` (stereo not shown) [Compound 353], the IC50 is 200 to 5000 nM at CDK2/Cyclin E1 complex; less than 20 nM in test [1]; no less than 5000 nM at CDK9/Cyclin T1 complex; 200 to 5000 nM in test [2]; less than 100 nM in the test with HCC70 cells.
In the case of `CC1(C)CNCC(Nc2ncc(Cl)c(-c3c[nH]c4c(S(C)(=O)=O)c(C#N)ccc34)n2)C1` (stereo not shown) [Compound 382], the IC50 at CDK2/Cyclin E1 complex was 200 to 5000 nM; in test [1], less than 20 nM; at CDK9/Cyclin T1 complex it was 200 to 5000 nM; in test [2], 200 to 5000 nM; in the test on HCC70 cells, less than 100 nM.
Consider `Cn1cc(-c2nc(NC3CCCNC3)ncc2C(F)(F)F)c2ccc(C#N)nc21` (stereo not shown) [Compound 273], for which the results for the IC50 in the test with A673 cells and with HCC70 cells were 200 to 5000 nM and 1000 to 5000 nM, respectively.
On to `FC(F)(F)c1cnc(NC2CCCNC2)nc1-c1c[nH]c2cc(-c3cnccn3)ccc12` (stereo not shown) [Compound 328], for which the IC50 against CDK2/Cyclin E1 complex is 200 to 5000 nM; in test [1], less than 20 nM; on CDK9/Cyclin T1 complex it was 200 to 5000 nM; in test [2], 200 to 5000 nM; in the test on HCC70 cells, less than 100 nM.
For the compound `O=c1[nH]cc(-c2ccc3c(-c4nc(NC5CCCNC5)ncc4C(F)(F)F)c[nH]c3c2)c(=O)[nH]1` (stereo not shown) [Compound 333], the IC50 against CDK2/Cyclin E1 complex was no less than 5000 nM; in test [1] it was less than 20 nM; against CDK9/Cyclin T1 complex, no less than 5000 nM; in test [2], 200 to 5000 nM; in the test with HCC70 cells, 1000 to 5000 nM.
